Measurements as given in US8173694B2, “Therapeutic agent” (Pentraxin Therapeutics Limited, priority 2001, dated 2012).
“Also recorded” adds a separate entry of the source.

Assays:
[1] = Metabolism, excretion and oral bioavailability in mice; format: in vivo, mouse
[2] = molecular target: serum amyloid P component (SAP) (Homo sapiens, UniProt P02743); assay: Inhibition of SAP binding to amyloid fibrils in vitro
From the text: A method for screening and testing inhibitors of serum amyloid P component (SAP) binding to amyloid fibrils in vitro was devised and used in collaboration with F Hoffmann-La Roche Ltd to identify a suitable lead molecule for drug development. A library of candidate compounds was screened accordingly. The subsequent collaborative medicinal chemistry programme led to synthesis of a family of dicarboxylic acid, pyrrolidone ring containing molecules, of which the most studied is (R)-1-[6-(R)-2-Carboxy-pyrrolidin-1-yl]-6-oxo-hexanoyl]pyrrolidine-2-carboxylic acid. This molecule and related compounds (EP-A-0915088) are modestly potent inhibitors of SAP binding to amyloid fibrils in vitro, with IC50 values around 0.5-1.0 μM.
Further studies determined that each of the following bis-D-Proline compounds were tested for their ability to deplete SAP in vivo as described above. Each of the compounds identified below successfully depleted SAP. In addition, certain of the compounds were further tested for in vitro inhibition of binding of SAP to amyloid fibrils in accordance with the protocol provided in EP 0915088 at page 10, as referenced above. The results are shown in the second column below, where applicable.

isolated pure human CRP = molecular target: T1, isolated pure human CRP (Homo sapiens, UniProt P02741); assay: Size exclusion chromatography of isolated pure CRP mixed with drug; format: binding
T1 sequence (P02741 19-224): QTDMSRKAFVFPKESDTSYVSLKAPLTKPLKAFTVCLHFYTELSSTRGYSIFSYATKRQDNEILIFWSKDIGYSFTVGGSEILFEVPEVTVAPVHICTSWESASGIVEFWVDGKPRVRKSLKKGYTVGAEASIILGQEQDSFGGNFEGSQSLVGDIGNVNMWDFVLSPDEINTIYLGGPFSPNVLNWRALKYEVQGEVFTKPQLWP
Experimental: C-reactive protein (CRP) is a pentraxin closely related to SAP. Samples of isolated pure human SAP or CRP were mixed with (R)-1-[6-(R)-2-Carboxy-pyrrolidin-1-yl]-6-oxo-hexanoyl]pyrrolidine-2-carboxylic acid at the molar ratios shown, with respect to pentraxin protomer, in physiological ionic strength Tris buffered saline pH 8.0, and analysed by size exclusion chromatography precisely as described previously (14). The mixtures and the column eluants contained either no calcium ions or 2 mM calcium, and the concentrations of drug appropriate to maintain the molar ratios indicated above. In the absence of a specific ligand to which it can bind, purified human SAP is insoluble in the presence of calcium and elutes as high molecular weight aggregates in the void volume of the column (14). However in the absence of calcium and ligand, isolated SAP alone forms stable decamers, providing an excellent marker for the elution volume of this molecular assembly (14). Human CRP is a stable pentamer either in the presence or absence of calcium and thus provides a robust marker for the elution position of that molecular form (14).

plasma SAP = molecular target: T2, plasma SAP (Homo sapiens, UniProt P02743); assay: Subcutaneous injection in patients with systemic amyloidosis: plasma SAP; format: in vivo; settings: subcutaneous injection 0.25 mg/kg/day in 12 hourly divided doses
T2 construct: from tissue; host or cells: plasma of patients in vivo
Experimental: The doses of (R)-1-[6-(R)-2-Carboxy-pyrrolidin-1-yl]-6-oxo-hexanoyl]pyrrolidine-2-carboxylic acid (desapin) shown were given by 12 hourly subcutaneous injections to two individual patients with systemic amyloidosis, and with small and moderate amyloid loads respectively. The disappearance of circulating SAP was effectively the same as during intravenous infusion of the drug, and in the patient illustrated in the right panel, who had received a tracer dose of ^123I-SAP, there was accumulation of SAP in the liver and accelerated clearance from the spleen.

SAP in whole human serum = molecular target: T3, SAP in whole human serum (Homo sapiens, UniProt P02743); assay: Size exclusion chromatography of whole human serum mixed with drug: SAP; format: binding
T3 construct: Aliquots of a single pool of whole normal human serum, containing SAP and CRP; from tissue; host or cells: pooled whole normal human serum
Experimental: Aliquots of a single pool of whole normal human serum, containing SAP and CRP, were mixed with (R)-1-[6-(R)-2-Carboxy-pyrrolidin-1-yl]-6-oxo-hexanoyl]pyrrolidine-2-carboxylic acid at the molar ratios shown, with respect to pentraxin protomer, and analysed by size exclusion chromatography precisely as described previously (14). The mixtures and the column eluants contained either no calcium ions or 2 mM calcium, and the concentrations of drug appropriate to maintain the molar ratios indicated above. SAP in whole serum is a stable soluble pentameric assembly of protomers, stabilised by the presence of the normal high concentration of serum albumin. However as SAP is separated from serum albumin during gel filtration with a calcium containing eluant, the SAP autoaggregates and elutes entirely as high molecular weight polymers in the void volume of the column. This is because, in the absence of a specific ligand to which it can bind, isolated human SAP is insoluble in the presence of calcium (14). However in the absence of calcium, where no ligand binding or autoaggregation can occur, SAP forms stable decamers, providing an excellent marker for the elution volume of this molecular assembly (14). Human CRP is a stable pentamer either in the presence or absence of calcium and thus provides a robust marker for the elution position of that molecular form (14).

[3] = drug:protein 1:1, calcium present
[4] = drug:protein 10:1, calcium present
[5] = drug:protein 100:1, calcium present

T3 sequence (P02743 20-223): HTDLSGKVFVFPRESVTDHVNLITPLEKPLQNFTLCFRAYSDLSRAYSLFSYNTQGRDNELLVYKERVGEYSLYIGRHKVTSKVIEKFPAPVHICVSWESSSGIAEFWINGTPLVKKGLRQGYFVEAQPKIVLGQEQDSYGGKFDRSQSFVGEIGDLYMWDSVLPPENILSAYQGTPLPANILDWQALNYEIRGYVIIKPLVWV
serum amyloid P component (SAP), sequence (P02743 20-223): as above
T2 sequence (P02743 20-223): as above

## O=C(O)[C@H]1CCCN1C(=O)CCCCC(=O)N1CCC[C@@H]1C(=O)O [(R)-1-[6-(R)-2-Carboxy-pyrrolidin-1-yl]-6-oxo-hexanoyl]pyrrolidine-2-carboxylic acid]
[1]
  Excretion: very rapidly excreted, predominantly in the urine, with a small amount in the bile
  Metabolism: not metabolised
  Oral bioavailability: very limited oral bioavailability
[2]; compared with 1-(3-Mercapto-2-methyl-1-oxopropyl)-D-proline
  Potency as inhibitor of SAP binding to amyloid fibrils relative to original lead compound: more potent inhibitors than the original lead compound
[2]; read-out: IC50, inhibition of SAP binding to amyloid fibrils in vitro
  IC50: 500 to 1000 nM
Isolated pure human CRP; [3]
  Elution volume: 12.58 mL
  Molecular assembly: Pentamer
Isolated pure human CRP; [4]
  Elution volume: 11.96 mL
  Molecular assembly: Pentamer
Plasma SAP
  Effect on plasma SAP compared with intravenous infusion: the same effect
SAP in whole human serum; [3]
  Molecular assembly: some of the SAP was solubilised as stable drug-decamer complexes; also recorded: High MW
SAP in whole human serum; [4]
  Molecular assembly: High MW; also recorded: Decamer
SAP in whole human serum; [5]
  Elution volume: 10.0 to 10.5 mL
  Molecular assembly: all the SAP was in this form; also recorded: Decamer
